Measured values published in ChEMBL document CHEMBL1201862, “PubChem BioAssay data set” (2004).
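Where inhibition never reached the appropriate level, the endpoint shown equals the highest concentration tested. Otherwise, values were interpolated linearly from a five-concentration, 48-hour dose response in 96-well plates. Abbreviation: GI50, concentration required for 50% inhibition of growth.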 Activity calls are given as the source filed them. No stated cut-off is given here; in the data, active = GI50 up to about 1.1 µM and inactive = higher.

Key:
Experiment in all cases: inhibition of tumour cell growth, NCI panel, 48 h
HCT-15 = tested on: HCT-15
CAKI-1 = tested on: CAKI-1
K562 = tested on: K562
SNB-78 = tested on: SNB-78
SK-MEL-2 = tested on: SK-MEL-2
Malme-3M = tested on: Malme-3M
NCI-H460 = tested on: NCI-H460
A498 = tested on: A498
OVCAR-4 = tested on: OVCAR-4
EKVX = tested on: EKVX
SF-539 = tested on: SF-539
HOP-92 = tested on: HOP-92
SNB-75 = tested on: SNB-75
COLO 205 = tested on: COLO 205
U-251 = tested on: U-251
HCC 2998 = tested on: HCC 2998
HOP-62 = tested on: HOP-62
MDA-N = tested on: MDA-N
BT-549 = tested on: BT-549
MDA-MB-435 = tested on: MDA-MB-435

Row | SMILES | GI50 (HCT-15) | GI50 (CAKI-1) | GI50 (K562) | GI50 (SNB-78) | GI50 (SK-MEL-2) | GI50 (Malme-3M) | GI50 (NCI-H460) | GI50 (A498) | GI50 (OVCAR-4) | GI50 (EKVX) | GI50 (SF-539) | GI50 (HOP-92) | GI50 (SNB-75) | GI50 (COLO 205) | GI50 (U-251) | GI50 (HCC 2998) | GI50 (HOP-62) | GI50 (MDA-N) | GI50 (BT-549) | GI50 (MDA-MB-435)
1 | O=C(CC(=O)N1N=C(c2ccccc2)C(/N=N/c2ccc(C(=O)O)cc2)C1=O)Nc1ccc(F)cc1 (configuration not stated) | 18 µM | 7.55 µM (inactive) | 18.9 µM (inactive) | 42.8 µM (inactive) | 17.9 µM (inactive) | 60.7 µM (inactive) | 28.7 µM (inactive) | 10.6 µM (inactive) | 52 µM (inactive) | 30.1 µM (inactive) | 13.4 µM (inactive) | 50.8 µM (inactive) | 1.51 µM (inactive) | 43.8 µM (inactive) | – | – | – | – | – | –
2 | COc1cccc(NC(=O)CC(=O)NNCC(=O)Nc2nnc(-c3ccc(N(CCC#N)S(=O)(=O)c4ccccc4)cc3)s2)c1 | > 100 µM | > 100 µM (inactive) | 37.6 µM (inactive) | > 100 µM (inactive) | > 100 µM (inactive) | 40.7 µM (inactive) | – | – | 65.8 µM (inactive) | 41 µM (inactive) | > 100 µM (inactive) | 49.2 µM (inactive) | – | 53 µM (inactive) | 76.9 µM (inactive) | > 100 µM (inactive) | 88.7 µM (inactive) | – | – | –
3 | COC(=O)[C@H](CCSC)NC(=O)N[C@H](C)c1ccccc1 | > 100 µM | > 100 µM (inactive) | > 100 µM (inactive) | – | > 100 µM (inactive) | 24.9 µM (inactive) | > 100 µM (inactive) | > 100 µM (inactive) | > 100 µM (inactive) | > 100 µM (inactive) | > 100 µM (inactive) | 43.5 µM (inactive) | > 100 µM (inactive) | > 100 µM (inactive) | > 100 µM (inactive) | > 100 µM (inactive) | > 100 µM (inactive) | > 100 µM (inactive) | > 100 µM (inactive) | > 100 µM (inactive)
4 | CC(C)(C)N(Cc1ccccc1)C(=O)/C=C\[S+]([O-])c1ccccc1 (configuration not stated) | 3.75 µM | 5.85 µM (inactive) | 2.22 µM (inactive) | – | 2.8 µM (inactive) | 1.69 µM (inactive) | 4.1 µM (inactive) | 13.4 µM (inactive) | 2.32 µM (inactive) | 10.5 µM (inactive) | 3.94 µM (inactive) | 3.37 µM (inactive) | 10.9 µM (inactive) | 4.72 µM (inactive) | 3.88 µM (inactive) | 6.28 µM (inactive) | 8.24 µM (inactive) | 2.16 µM (inactive) | 2.94 µM (inactive) | 2.65 µM (inactive)
5 | O=C(O)CCc1nc(-c2ccccc2-n2cccc2)no1 | > 100 µM | > 100 µM (inactive) | > 100 µM (inactive) | – | > 100 µM (inactive) | 52.6 µM (inactive) | 73.6 µM (inactive) | > 100 µM (inactive) | 11.8 µM (inactive) | > 100 µM (inactive) | > 100 µM (inactive) | > 100 µM (inactive) | > 100 µM (inactive) | > 100 µM (inactive) | > 100 µM (inactive) | > 100 µM (inactive) | > 100 µM (inactive) | 31.4 µM (inactive) | > 100 µM (inactive) | 16.6 µM (inactive)
6 | CCO[C@H]1O[C@@H]2OC3(C)CCC4[C@H](C)CCC([C@H]1C)[C@]42OO3 (some centres not stated) | 23.9 µM | > 100 µM (inactive) | 15.9 µM (inactive) | – | > 100 µM (inactive) | 42.3 µM (inactive) | > 55 µM (inactive) | > 100 µM (inactive) | 25.8 µM (inactive) | > 49.1 µM (inactive) | > 84.7 µM (inactive) | > 100 µM (inactive) | > 74.1 µM (inactive) | 2.98 µM (inactive) | 42.7 µM (inactive) | 97.1 µM (inactive) | > 100 µM (inactive) | 49.7 µM (inactive) | > 100 µM (inactive) | 19.1 µM (inactive)
7 | CSCCCNC(=O)[C@H](CSC)NC(=O)c1csc(CCNC(=O)[C@@H](NSc2ccccc2[N+](=O)[O-])C(C)O)n1 (some centres not stated) | > 100 µM | > 100 µM (inactive) | > 100 µM (inactive) | – | > 100 µM (inactive) | > 100 µM (inactive) | > 100 µM (inactive) | > 100 µM (inactive) | > 100 µM (inactive) | > 100 µM (inactive) | > 100 µM (inactive) | > 100 µM (inactive) | 28.2 µM (inactive) | > 100 µM (inactive) | > 100 µM (inactive) | > 100 µM (inactive) | > 100 µM (inactive) | > 100 µM (inactive) | > 100 µM (inactive) | > 100 µM (inactive)
8 | CCNc1nnc(-c2nsc3ccccc23)s1 | > 100 µM | – | > 100 µM (inactive) | 62.1 µM (inactive) | > 100 µM (inactive) | – | 33.2 µM (inactive) | – | 86.5 µM (inactive) | 51.9 µM (inactive) | 56.2 µM (inactive) | > 100 µM (inactive) | 8.83 µM (inactive) | > 100 µM (inactive) | 31.3 µM (inactive) | 67.6 µM (inactive) | 33.7 µM (inactive) | – | – | –
